According to US5985822A, “Inhibition of glial cell proliferation with N-CAM homophilic peptides” (The Scripps Research Institute, priority 1995, dated 1999):
Read-outs that look alike come from different tables or passages of the source.

What was measured:
N-CAM = assay: Levels of N-CAM expression in astrocytes by Western blotting (antisense experiments); assay type: cell-based, rat; conditions: oligonucleotide added for 48 hours
Procedure: The amounts of N-CAM present in astrocytes were quantified by Western blotting. Cultures were grown as described and cellular material was lysed in buffer (phosphate buffered saline, pH 7.4, containing 0.5% NP-40, 350 μg/ml PMSF, 2 μg/ml aprotinin, 0.5 μg/ml leupeptin, and 0.7 μg/ml pepstatin A) at 4° C. Standard Western blotting techniques were employed either using cell lysate directly or after N-CAM immunoprecipitation. [^125 I]-Immunolabeled N-CAM was estimated by densitometry on a Molecular Dynamics PhosporImager using ImageQuant software.
[…]. After deprotection, the oligonucleotides were purified using HPLC, ethanol precipitated, solubilized in distilled water and added to the culture medium at the indicated concentrations.

[1] = tested on: rat forebrain astrocytes in primary culture; assay: Astrocyte proliferation assay ([3H]-thymidine incorporation normalized to [35S]-methionine); assay type: cell-based; conditions: for effect of oligonucleotide preincubation on inhibition of proliferation by N-CAM: 200 nM oligonucleotide 48 hours before 2 μg/ml N-CAM; for effect of oligonucleotide alone on proliferation: 200 nM, no N-CAM added; for effect of drug on the ability of N-CAM to inhibit astrocyte proliferation (in words): drug in the presence of N-CAM; for Drug Alone: means of triplicate (Table 5)
Procedure: Primary cultures of astrocytes were prepared from the forebrains of 4-5 day old neonatal rats. After decapitation and removal of the forebrains from the skull, the meninges were carefully peeled off, and forebrain tissue was triturated in sterile phosphate buffered saline (PBS) using firepolished pipettes. The resulting suspension of tissue fragments was incubated in Hank's balanced salt solution (Gibco BRL) with 2.5 mg/ml trypsin, 1 mM EDTA and 0.1 mg/ml DNase (Boehringer) at 37° C. for 15 minutes. […] The pellet was resuspended in serum free medium (SFM) consisting of Dulbecco's Modified Eagle Medium (D-MEM), 2 mM L-glutamine, 50 U/ml penicillin G sodium and 50 μg/ml streptomycin sulfate (all from Gibco BRL) supplemented by 10% (vol/vol) fetal bovine serum (FBS). The cells were transferred to a standard 100 mm tissue culture dish (Falcon) and incubated at 37° C. for 1-2 hours. After mild shaking, the supernatant containing unattached cells was transferred to a 100 mm collagen-coated dish. […] Cell samples were checked regularly for the expression of GFAP, a marker for astrocytes.
After cell attachment, the culture medium was exchanged for SFM. In antisense experiments, oligonucleotides were added at the same time (T=0). […] After another 12 hours (at T=60), [^3 H]-thymidine (New England Nuclear, 20 Ci/mmol) was added (0.38 μM, 10 μCi/ml). Following an additional 12 hours (T=72), the wells were drained, counts precipitated by ice-cold […] trichloroacetic acid, and the plates left to dry. Counts were solubilized overnight by adding 100 μl 1 N KOH to each well, neutralized with 100 μl 1 N HCl, transferred to liquid scintillation vials and counted in 3 ml of Beckman Ready Safe liquid scintillation cocktail on a Packard 1600 TR counter. […] In this paper, proliferation is expressed as [^3 H]-thymidine incorporation normalized to [35]-methionine incorporation and calculated as [^3 H] dpm/ [35] dpm.

5'-AGAUCCUUAG WUCGCAGCAUUGUA-3' (antisense AGAUCCUUAGUUCGCAGCAUUGUA; phosphorothioate linkages, further chemistry not given here) [N-CAM antisense RNA, phosphorothioate oligoribonucleotide complementary to position 205 to 228 of rat N-CAM]
effect on N-CAM expression (in words) (N-CAM): significantly reduced N-CAM expression
effect of oligonucleotide preincubation on inhibition of proliferation by N-CAM [1]: weaker inhibitory effect of N-CAM on proliferation
effect of oligonucleotide alone on proliferation [1]: no effect on proliferation

5'-GUCCAUGUACAUCUAGUCAGUUGA-3 (chemistry not given here) [random antisense RNA]
effect on N-CAM expression (in words) (N-CAM): no effect on N-CAM expression
N-CAM level (sum of all molecular forms, mostly 140 kD and 120 kD) (N-CAM; mean ± S.E.M. (n)): 87 ± 18 % Control
effect of oligonucleotide preincubation on inhibition of proliferation by N-CAM [1]: no such effect
effect of oligonucleotide alone on proliferation [1]: no effect on proliferation

CCCCC/C=C\C/C=C\C/C=C\C/C=C\CCCC(=O)O [Arachidonic Acid, arachidonic acid]
[3H]-thymidine incorporation, Drug + N-CAM ([1]; drug 10 μM plus N-CAM 2 μg/ml): 60 ± 12 % SFM Ctrl
[3H]-thymidine incorporation, Drug alone ([1]; drug 10 μM, 2×10^5 cells/ml): 107 ± 10 % SFM Ctrl
effect of drug on the ability of N-CAM to inhibit astrocyte proliferation (in words) [1]: had no effect on the ability of N-CAM to inhibit astrocyte proliferation

C=C[C@@]1(C)CC(=O)[C@]2(O)[C@@]3(C)[C@@H](O)CCC(C)(C)[C@@H]3[C@H](O)[C@H](OC(C)=O)[C@@]2(C)O1 [Forskolin, forskolin]
[3H]-thymidine incorporation, Drug alone ([1]; drug 1 μM, 2×10^5 cells/ml): 73 ± 2 % SFM Ctrl
[3H]-thymidine incorporation, Drug alone ([1]; drug 10 μM, 2×10^5 cells/ml): 32 ± 6 % SFM Ctrl
effect of drug on astrocyte proliferation (in words) ([1]; drug alone, astrocyte cultures): blocks proliferation of astrocytes in culture

C[C@]12O[C@H](C[C@]1(O)C(=O)O)n1c3ccccc3c3c4c(c5c6ccccc6n2c5c31)CNC4=O [K252b]
[3H]-thymidine incorporation, Drug + N-CAM ([1]; drug 100 nM plus N-CAM 2 μg/ml): 85 ± 5 % SFM Ctrl
[3H]-thymidine incorporation, Drug alone ([1]; drug 100 nM, 2×10^5 cells/ml): 98 ± 17 % SFM Ctrl
[3H]-thymidine incorporation, Drug + N-CAM ([1]; drug 200 nM plus N-CAM 2 μg/ml): 64 ± 1 % SFM Ctrl
[3H]-thymidine incorporation, Drug alone ([1]; drug 200 nM, 2×10^5 cells/ml): 78 ± 15 % SFM Ctrl
effect of drug on the ability of N-CAM to inhibit astrocyte proliferation (in words) [1]: allowed the astrocytes cells to grow normally

COC(=O)C=Cc1cc(O)ccc1O [Methyl 2,5-dihydroxycinnamate, methyl 2,5-dihydroxycinnamate]
Drug + Ig3 ([1]; drug 0.25 μg/ml plus Ig3 2 μg/ml (Table 5)): 59 % of SFM Control
Drug + N-CAM ([1]; drug 0.25 μg/ml plus N-CAM 2 μg/ml (Table 5)): 60 % of SFM Control
Drug Alone ([1]; drug 0.25 μg/ml, 2×10^5 cells/ml): 65 % of SFM Control

CCCCCCCCCCCCCC(=O)O[C@@H]1[C@@H](C)[C@@]2(O)[C@@H](C=C(CO)C[C@]3(O)C(=O)C(C)=C[C@@H]23)[C@@H]2C(C)(C)[C@]12OC(C)=O [PMA]
effect of drug on astrocyte proliferation (in words) [1]: strong mitogenic response
[3H]-thymidine incorporation, Drug alone ([1]; drug 10 nM, 2×10^5 cells/ml): 138 ± 16 % SFM Ctrl
[3H]-thymidine incorporation, Drug + N-CAM ([1]; drug 100 nM plus N-CAM 2 μg/ml): 228 % SFM Ctrl
[3H]-thymidine incorporation, Drug alone ([1]; drug 100 nM, 2×10^5 cells/ml): 268 ± 34 % SFM Ctrl

Pertussis Toxin
effect of drug on astrocyte proliferation (in words) [1]: slightly inhibited astrocyte proliferation
[3H]-thymidine incorporation, Drug + N-CAM ([1]; drug 1 μg/ml plus N-CAM 2 μg/ml): 57 ± 13 % SFM Ctrl
[3H]-thymidine incorporation, Drug alone ([1]; drug 1 μg/ml, 2×10^5 cells/ml): 67 ± 13 % SFM Ctrl
[3H]-thymidine incorporation, Drug + N-CAM ([1]; drug .5 μg/ml plus N-CAM 2 μg/ml): 53 ± 9 % SFM Ctrl
[3H]-thymidine incorporation, Drug alone ([1]; drug .5 μg/ml, 2×10^5 cells/ml): 74 ± 20 % SFM Ctrl
effect of drug on the ability of N-CAM to inhibit astrocyte proliferation (in words) [1]: N-CAM was still able to inhibit proliferation

bFGF: basic fibroblast growth factor, Upstate Biotechnology Incorporated
proliferation as compared to cultures in SFM ([1]; 20 ng/ml bFGF, n=12): 347±56%

calphostin C
effect of drug on astrocyte proliferation (in words) [1]: inhibits proliferation
[3H]-thymidine incorporation, Drug alone ([1]; drug 0.1 μM, 2×10^5 cells/ml): 111 ± 35 % SFM Ctrl
[3H]-thymidine incorporation, Drug alone ([1]; drug 0.5 μM, 2×10^5 cells/ml): 54 ± 35 % SFM Ctrl

mastoparan
effect of drug on astrocyte proliferation (in words) [1]: stimulated astrocyte proliferation
Drug + Ig3 ([1]; drug 50 μM plus Ig3 2 μg/ml (Table 5)): 192.5 % of SFM Control
[3H]-thymidine incorporation, Drug + N-CAM ([1]; drug 50 μM plus N-CAM 2 μg/ml (Table 4)): 205 ± 30 % SFM Ctrl
Drug + N-CAM ([1]; drug 50 μM plus N-CAM 2 μg/ml (Table 5)): 202.5 % of SFM Control
[3H]-thymidine incorporation, Drug alone ([1]; drug 50 μM, 2×10^5 cells/ml (Table 4)): 213 ± 47 % SFM Ctrl
Drug Alone ([1]; drug 50 μM, 2×10^5 cells/ml): 210 % of SFM Control
effect of drug on the ability of N-CAM to inhibit astrocyte proliferation (in words) [1]: not inhibited by the concentration of N-CAM used

B1: N-CAM treated with neuraminidase: purified N-CAM treated with neuraminidase to remove sialic acid (protein, UniProt P13596 20-858, looked up)
Neural cell adhesion molecule …: LQVDIVPSQGEISVGESKFFLCQVAGDAKDKDISWFSPNGEKLSPNQQRISVVWNDDDSSTLTIYNANIDDAGIYKCVVTAEDGTQSEATVNVKIFQKLMFKNAPTPQEFKEGEDAVIVCDVVSSLPPTIIWKHKGRDVILKKDVRFIVLSNNYLQIRGIKKTDEGTYRCEGRILARGEINFKDIQVIVNVPPTVQARQSIVNATANLGQSVTLVCDADGFPEPTMSWTKDGEPIENEEEDDEKHIFSDDSSELTIRNVDKNDEAEYVCIAENKAGEQDASIHLKVFAKPKITYVENQTAMELEEQVTLTCEASGDPIPSITWRTSTRNISSEEKASWTRPEKQETLDGHMVVRSHARVSSLTLKSIQYTDAGEYICTASNTIGQDSQSMYLEVQYAPKLQGPVAVYTWEGNQVNITCEVFAYPSATISWFRDGQLLPSSNYSNIKIYNTPSASYLEVTPDSENDFGNYNCTAVNRIGQESLEFILVQADTPSSPSIDRVEPYSSTAQVQFDEPEATGGVPILKYKAEWKSLGEEAWHSKWYDAKEANMEGIVTIMGLKPETRYAVRLAALNGKGLGEISAATEFKTQPVREPSAPKLEGQMGEDGNSIKVNLIKQDDGGSPIRHYLVKYRALASEWKPEIRLPSGSDHVMLKSLDWNAEYEVYVVAENQQGKSKAAHFVFRTSAQPTAIPANGSPTAGLSTGAIVGILIVIFVLLLVVMDITCYFLNKCGLLMCIAVNLCGKAGPGAKGKDMEEGKAAFSKDESKEPIVEVRTEEERTPNHDGGKHTEPNETTPLTEPEKGPVETKSEPQESEAKPAPTEVKTVPNEATQTKENESKA
modifications: desialylated by neuraminidase
notes: purified N-CAM treated with neuraminidase to remove sialic acid
[3H]-thymidine incorporation vs. SFM control ([1]; 2 μg/ml, n=2): 24±4%

B2: N-CAM purified from embryonic chick brain: N-CAM purified from embryonic chick brain, which binds to rodent N-CAM (protein, UniProt P13590 20-1091, looked up)
Neural cell adhesion molecule …: LQVDIVPSQGEISVGESKFFLCQVAGEAKYKDISWFSPNGEKLTPNQQRISVVRNDDFSSTLTIYNANIDDAGIYKCVVSSVEEGDSEATVNVKIFQKLMFKNAPTPQEFKEGDDAVIVCDVVSSLPPTIIWKHKGRDVMLKKDVRFIVLSNNYLQIRGIKKTDEGTYRCEGRILARGEINFKDIQVIVNVPPSVRARQSTMNATANLSQSVTLACDADGFPEPTMTWTKDGEPIEQEDNEEKYSFNYDGSELIIKKVDKSDEAEYICIAENKAGEQDATIHLKVFAKPKITYVENKTAMELEDQITLTCEASGDPIPSITWKTSTRNISNEEKTLDGRIVVRSHARVSSLTLKEIQYTDAGEYVCTASNTIGQDSQAMYLEVQYAPKLQGPVAVYTWEGNQVNITCEVFAYPSAVISWFRDGQLLPSSNYSNIKIYNTPSASYLEVTPDSENDFGNYNCTAVNRIGQESSEFILVQADTPSSPSIDRVEPYSSTARVEFDEPEATGGVPILKYKAEWRALGEGEWHSRLYDAKEANVEGTITISGLKPETTYSVRLSAVNGKGVGEISLPSDFKTQPVREPSAPKLEGQMGEDGNSIKVNVIKQDDGGSPIRHYLIKYKAKHSSEWKPEIRLPSGIDHVMLKSLDWNAEYEVYVIAENQQGKSKPAHYAFRTSAQPTVIPASTSPTSGLGTAAIVGILIVIFVLLLVAVDVTCYFLNKCGLLMCIAVNLCGKSGPGAKGKDMEEGKAAFSKDESKEPIVEVRTEEERTPNHDGGKHTEPNETTPLTEPEHTADTAATVEDMLPSVTTGTTNSDTITETFATAQNSPTSETTTLTSSIAPPATAIPDSNAMSPGQATPAKAGASPVSPPPPSSTPKVAPLVDLSDTPSSAPATNNLSSSVLSNQGAVLSPSTVANMAETSKAAAGNKSAAPTPANLTSPPAPSEPKQEVSSTKSPEKEAAQPSTVKSPTETAKNPSNPKSEAASGGTTNPSQNEDFKMDEGTFKTPDIDLAKDVFAALGTTTPASVASGQARELASSTADSSVPAAPAKTEKTPVEDKSEVQATEIRHLQQK
effect on astrocyte proliferation (in words) ([1]; added to astrocyte cultures in SFM): also inhibited proliferation
